What was measured:
[1] = Inhibition of URAT1 R477K mutant (unknown origin)-mediated 14C-uric acid uptake expressed in HEK293 cells using 14C-uric acid as substrate preincubated for 30 mins followed by substrate addition and measured after 15 mins by liquid scintillation counting analysis; format: cell-based; conditions: Homo sapiens
[2] = MRT (0 to infinity) in Sprague-Dawley rat at 5 mg/kg, iv by LC-MS/MS analysis; format: ADME, organism-based; conditions: in vivo
[3] = Inhibition of URAT1 I481M mutant (unknown origin)-mediated 14C-uric acid uptake expressed in HEK293 cells using 14C-uric acid as substrate preincubated for 30 mins followed by substrate addition and measured after 15 mins by liquid scintillation counting analysis; format: cell-based; conditions: Homo sapiens
[4] = Oral bioavailability in Sprague-Dawley rat at 5 mg/kg measured upto 36 hrs by LC-MS/MS analysis; format: ADME, organism-based; conditions: in vivo
[5] = test system: Mus musculus; experiment: Anti-hyperuricemic activity against xanthine and potassium oxonate-induced acute hyperuricemia Kunming mouse model assessed as serum uric acid concentration at 10 mg/kg, po measured after 3 hrs (reference value: 846.22 uM); format: functional
[6] = Cytotoxicity against human HK-2 cells assessed as reduction in cell viability incubated for 48 hrs by MTT assay; format: toxicity, cell-based
[7] = target: T1, Solute carrier family 22 member 12 (Homo sapiens, UniProt Q96S37); experiment: Inhibition of URAT1 (unknown origin)-mediated 14C-uric acid uptake expressed in HEK293 cells using 14C-uric acid as substrate preincubated for 30 mins followed by substrate addition and measured after 15 mins by liquid scintillation counting analysis; format: cell-based
T1 sequence (Q96S37 whole entry): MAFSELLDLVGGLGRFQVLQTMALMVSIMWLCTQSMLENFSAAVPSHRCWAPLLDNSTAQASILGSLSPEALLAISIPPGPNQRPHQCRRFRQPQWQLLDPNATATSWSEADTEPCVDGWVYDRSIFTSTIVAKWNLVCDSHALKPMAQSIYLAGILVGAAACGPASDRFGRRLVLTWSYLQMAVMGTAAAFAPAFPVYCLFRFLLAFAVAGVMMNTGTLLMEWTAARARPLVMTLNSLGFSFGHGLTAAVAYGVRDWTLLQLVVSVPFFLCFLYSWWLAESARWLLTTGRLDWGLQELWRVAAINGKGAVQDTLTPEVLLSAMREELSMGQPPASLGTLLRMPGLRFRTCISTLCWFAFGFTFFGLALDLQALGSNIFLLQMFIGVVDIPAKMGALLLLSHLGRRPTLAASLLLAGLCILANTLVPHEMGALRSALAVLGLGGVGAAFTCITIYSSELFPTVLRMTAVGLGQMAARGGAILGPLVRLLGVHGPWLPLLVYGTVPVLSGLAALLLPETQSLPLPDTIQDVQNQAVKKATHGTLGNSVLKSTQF

[8] = Inhibition of URAT1 F365Y mutant (unknown origin)-mediated 14C-uric acid uptake expressed in HEK293 cells using 14C-uric acid as substrate preincubated for 30 mins followed by substrate addition and measured after 15 mins by liquid scintillation counting analysis; format: cell-based; conditions: Homo sapiens
[9] = Inhibition of URAT1 F241Y mutant (unknown origin)-mediated 14C-uric acid uptake expressed in HEK293 cells using 14C-uric acid as substrate preincubated for 30 mins followed by substrate addition and measured after 15 mins by liquid scintillation counting analysis; format: cell-based; conditions: Homo sapiens
[10] = target: T2, Solute carrier family 22 member 6 (Homo sapiens, UniProt Q4U2R8); experiment: Inhibition of OAT1 (unknown origin) expressed in HEK293 cells assessed as inhibition of 6-CFL uptake preincubated for 30 mins followed by incubation with 6-CFL and measured after 15 mins by fluorescence based analysis; format: toxicity, cell-based
T2 sequence (Q4U2R8 whole entry): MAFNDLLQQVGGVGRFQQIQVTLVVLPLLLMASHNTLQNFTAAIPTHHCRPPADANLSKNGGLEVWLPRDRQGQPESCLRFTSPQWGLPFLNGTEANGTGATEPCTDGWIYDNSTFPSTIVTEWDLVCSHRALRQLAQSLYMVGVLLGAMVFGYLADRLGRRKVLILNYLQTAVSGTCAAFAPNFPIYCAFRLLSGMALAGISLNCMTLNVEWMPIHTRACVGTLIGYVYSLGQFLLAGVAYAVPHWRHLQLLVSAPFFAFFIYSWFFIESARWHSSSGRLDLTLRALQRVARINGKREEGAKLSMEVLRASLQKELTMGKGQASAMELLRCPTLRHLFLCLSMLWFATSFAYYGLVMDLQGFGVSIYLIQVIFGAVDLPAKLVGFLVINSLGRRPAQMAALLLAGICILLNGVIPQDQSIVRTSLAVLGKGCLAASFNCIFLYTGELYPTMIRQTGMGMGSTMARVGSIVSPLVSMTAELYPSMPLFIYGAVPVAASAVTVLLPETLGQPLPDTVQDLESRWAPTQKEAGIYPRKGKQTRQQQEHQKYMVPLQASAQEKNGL

[11] = Inhibition of URAT1 S35N mutant (unknown origin)-mediated 14C-uric acid uptake expressed in HEK293 cells using 14C-uric acid as substrate preincubated for 30 mins followed by substrate addition and measured after 15 mins by liquid scintillation counting analysis; format: cell-based; conditions: Homo sapiens
[12] = Cmax in Sprague-Dawley rat at 5 mg/kg, iv measured upto 36 hrs by LC-MS/MS analysis; format: ADME, organism-based; design: time < 36 hrs, dose 5 mg/kg, route iv; conditions: in vivo
[13] = MRT (0 to infinity) in Sprague-Dawley rat at 5 mg/kg, po by LC-MS/MS analysis; format: ADME, organism-based; conditions: in vivo
[14] = Half life in Sprague-Dawley rat at 5 mg/kg, po measured upto 36 hrs by LC-MS/MS analysis; format: ADME, organism-based; conditions: in vivo
[15] = Tmax in Sprague-Dawley rat at 5 mg/kg, po measured upto 36 hrs by LC-MS/MS analysis; format: ADME, organism-based; conditions: in vivo
[16] = Inhibition of URAT1 F358Y mutant (unknown origin)-mediated 14C-uric acid uptake expressed in HEK293 cells using 14C-uric acid as substrate preincubated for 30 mins followed by substrate addition and measured after 15 mins by liquid scintillation counting analysis; format: cell-based; conditions: Homo sapiens
[17] = Cmax in Sprague-Dawley rat at 5 mg/kg, po measured upto 36 hrs by LC-MS/MS analysis; format: ADME, organism-based; design: time < 36 hrs, dose 5 mg/kg, route po; conditions: in vivo
[18] = target: T3, Broad substrate specificity ATP-binding cassette transporter ABCG2 (Homo sapiens, UniProt Q9UNQ0); experiment: Inhibition of ABCG2 (unknown origin) expressed in HEK293 cells membrane vesicles assessed as inhibition of ATP-induced 14C-uric acid uptake preincubated for 15 mins followed by incubation with ATP and substrate for 5 mins by liquid scintillation counting analysis; format: toxicity, cell membranes, Membrane vesicle
T3 sequence (Q9UNQ0 whole entry): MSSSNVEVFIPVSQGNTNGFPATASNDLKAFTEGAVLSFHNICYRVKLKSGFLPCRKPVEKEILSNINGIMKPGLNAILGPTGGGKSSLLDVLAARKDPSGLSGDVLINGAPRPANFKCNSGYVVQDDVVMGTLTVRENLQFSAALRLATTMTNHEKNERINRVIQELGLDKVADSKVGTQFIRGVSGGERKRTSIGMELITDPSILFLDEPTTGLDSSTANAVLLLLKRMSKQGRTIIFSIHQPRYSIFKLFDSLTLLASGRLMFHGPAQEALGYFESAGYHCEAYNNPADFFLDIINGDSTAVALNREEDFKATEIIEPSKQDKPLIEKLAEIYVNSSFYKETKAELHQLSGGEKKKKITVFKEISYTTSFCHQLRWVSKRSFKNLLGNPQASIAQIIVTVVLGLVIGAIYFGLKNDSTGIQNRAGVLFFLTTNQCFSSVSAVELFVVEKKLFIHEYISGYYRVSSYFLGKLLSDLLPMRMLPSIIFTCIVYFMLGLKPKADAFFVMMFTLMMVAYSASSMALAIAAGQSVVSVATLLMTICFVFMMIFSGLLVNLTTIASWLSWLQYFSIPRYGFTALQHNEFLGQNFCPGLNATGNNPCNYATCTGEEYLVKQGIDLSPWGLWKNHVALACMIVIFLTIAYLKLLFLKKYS

[19] = Inhibition of URAT1 R487K mutant (unknown origin)-mediated 14C-uric acid uptake expressed in HEK293 cells using 14C-uric acid as substrate preincubated for 30 mins followed by substrate addition and measured after 15 mins by liquid scintillation counting analysis; format: cell-based; conditions: Homo sapiens
[20] = Tmax in Sprague-Dawley rat at 5 mg/kg, iv measured upto 36 hrs by LC-MS/MS analysis; format: ADME, organism-based; conditions: in vivo
[21] = test system: Mus musculus; experiment: Anti-hyperuricemic activity against xanthine and potassium oxonate-induced acute hyperuricemia Kunming mouse model assessed as increase in urine uric acid concentration at 10 mg/kg, po measured for 24 hrs; format: functional
[22] = Cytotoxicity against human HK-2 cells assessed as reduction in cell viability incubated for 24 hrs by MTT assay; format: toxicity, cell-based
[23] = AUC (0 to infinity) in Sprague-Dawley rat at 5 mg/kg, po by LC-MS/MS analysis; format: ADME, organism-based; design: time infinity, dose 5 mg/kg, route po; conditions: in vivo
[24] = AUC (0 to infinity) in Sprague-Dawley rat at 5 mg/kg, iv by LC-MS/MS analysis; format: ADME, organism-based; design: time infinity, dose 5 mg/kg, route iv; conditions: in vivo
[25] = Half life in Sprague-Dawley rat at 5 mg/kg, iv measured upto 36 hrs by LC-MS/MS analysis; format: ADME, organism-based; conditions: in vivo

## CC(C)(Sc1ccncc1-c1ccc(C#N)c2ccccc12)C(=O)[O-].[Na+]
[1]
  IC50: 1.24 µM
[2]
  MRT inf: 3.46 h
[3]
  IC50: 0.94 µM
[4]
  bioavailability: 21.5%
[5]
  Activity: 625.24 µM
[6]
  IC50 at 48 h: 109 µM
[7]
  IC50: 0.17 µM
[8]
  IC50: 5.01 µM
[9]
  IC50: 2.14 µM
[10]
  IC50: 12.7 µM
[11]
  IC50: 4.21 µM
[12]
  Cmax: 13400 ng/mL
[13]
  MRT inf: 4.05 h
[14]
  half-life: 4.01 h
[15]
  Tmax: 0.46 h
[16]
  IC50: 0.24 µM
[17]
  Cmax: 7210 ng/mL
[18]
  IC50: 18.7 µM
[19]
  IC50: 0.11 µM
[20]
  Tmax: 5.4 min
[21]
  Activity: 2371.02 µM
[22]
  IC50 at 24 h: 197 µM
[23]
  AUC(0-inf): 4130 ng·h/mL
[24]
  AUC(0-inf): 19700 ng·h/mL
[25]
  half-life: 3.49 h

From ChEMBL document CHEMBL5154691, “Discovery of novel verinurad analogs as dual inhibitors of URAT1 and GLUT9 with improved Druggability for the treatment of hyperuricemia” (Eur J Med Chem, 2022)
